Patent publication US7445794B1, “Methods for treating human proliferative diseases, with a combination of fatty acid metabolism inhibitors and glycolytic inhibitors” (The Regents of the University of Colorado, priority 2004, dated 2008)

System: HL60 MDR tumor
Experiment: Tumor volume of HL60 MDR tumor implanted in nude mice
Assay type: in vivo
Settings: for effect on tumor growth (in words): over the 21 day period, versus control
Excerpt: Mice were purchased from the Animal Production Program of National Cancer Institute, Frederick, Md. The animals used were Athymic Ncr-nu/nu (strain code 01B74). HL60 MDR cells were harvested and reconstituted at 1 million cells per 100 microliters of phosphate buffered saline. One million tumor cells per injection site were implanted subcutaneously on two sites of the animal's back. Treatments began at exactly seven days post tumor implantation. Tumor size/volume was monitored twice weekly using measurement calipers, with the formula Tumor Volume=π×(short diameter)^2×(long diameter)/6.
Treatment groups were: etomoxir at 200 micrograms/day; 2-deoxy-D-glucose at 2.5 mM in 100 microliters daily; and the combination daily of etomoxir at 200 micrograms and 2-deoxy-D-glucose at 2.5 mM in 100 microliters.
HL60 MDR human leukemia cells were cultured and implanted in nude mice as described above under “Materials and Methods”. The mice were given 200 ug of Etomoxir, 2.5 mM 2-Deoxy-D-glucose, or both 200 ug of Etomoxir and 2.5 mM 2-Deoxy-D-glucose given daily by IP injection. Treatment began exactly one week after tumor implantation.

Row | Structure (SMILES) | effect on tumor growth (in words) | tumor volume Day 7 (Day 7 after implantation (start of daily IP treatment), etomoxir 200 ug, 2-deoxy-D-glucose 2.5 mM) [mm^3]
1 | OC[C@H]1O[C@H](O)CC(O)[C@@H]1O (stereo partly drawn) [2-deoxy-D-glucose] | increase in tumor growth | –
2 | CCOC(=O)C1(CCCCCCOc2ccc(Cl)cc2)CO1 (stereo not drawn) [etomoxir, 2-(6-(4-chlorophenoxy)-hexyl)-oxirane-2-carboxylic acid ethyl ester] | increase in tumor growth | 36
